Assays:
[1] = test system: phosphorylation of IRF3 in THP-1 cells (STING activation); assay: Phosphorylation of IRF3: THP-1 cell ELISA; assay type: cell-based; settings: Homo sapiens, 3 hours incubation, read-out: THP-1 CELL P-IRF3 EC50
Description: Phosphorylation of IRF3: THP-1 cell ELISA
STING activation results in recruitment of TBK1 and phosphorylation of IRF3 transcription factor before induction of type I interferons. THP-1 cells (InvivoGen) were grown in RPMI media plus 2 mM L-glutamine, 10% fetal bovine serum, and 0.5% Pen-Strep. 10^4 cells were seeded in 96-well plates and incubated overnight […]. Compounds serial diluted compounds in media (final 0.5% DMSO) were added to the cells and incubated for an additional 3 hours. After incubation, the plates were centrifuged at 2000 rpm for 5 min. The cells were then lysed in 100 μl RIPA buffer and vortexed for 30 minutes at room temperature. 25 μl of lysate was then transferred to clear polystyrene High Bind plates that had been previously coated with mouse anti-human IRF-3 capture antibody (BD Pharmigen), and allowed to incubate at 4° C. for 16 hours. The plates were then washed and incubated with rabbit anti-phospho-IRF3 detection antibody (Cell Signaling Technologies) for 1.5 hours at room temperature. Finally, an HRP-linked secondary antibody (Cell Signaling Technologies) was added for 30 min before the Glo Substrate Reagent (R&D Systems) was used generate the luminescent signal. The signal was measured using a Perkin-Elmer Envision microplate reader. Data were normalized to “% effect” with a positive control STING agonist that was known to maximize the phosphorylated IRF3 signal and the negative control was DMSO.

[2] = test system: THP-1 Lucia ISG cells (IRF-inducible Lucia luciferase reporter); assay: Interferon-β induction: THP-1 ISG reporter cell line; assay type: cell-based; settings: THP1-Lucia ISG, 24 hours incubation, read-out: THP-1 Lucia ISG Cells IFN-β EC50
Description: Interferon-β Induction: THP-1 ISG Reporter Cell Line
THP-1 Lucia™ ISG cells (InvivoGen) express the secreted luciferase “Lucia” reporter gene under the control of an IRF-inducible composite promotor comprised of five interferon response elements. THP-1 Lucia™ ISG cells were grown in RPMI media plus 2 mM L-glutamine, 10% fetal bovine serum, and 0.5% Pen-Strep. Hygromycin B and Zeocin were present to maintain stable transfection. 10^4 cells were seeded in 96-well plates and incubated overnight 37° C., 5% CO2. 50 μL of serial diluted compounds in media (final 0.5% DMSO) was and incubated for an additional 24 hours. After incubation, the plates were centrifuged at 2000 rpm for 10 min. 50 μl of cell culture supernatant of each well was transferred to a white, opaque 96-well plate. One pouch of QUANTI-Luc™ (InvivoGen) powder was prepared in 25 mL of endotoxin-free water and 100 μL of prepared warm QUANTI-Luc solution were added to each well containing the supernatant. The luminescence signal was measured using a Perkin-Elmer Envision microplate reader. Data were normalized to “% effect” with a positive control STING agonist that was known to maximize the luciferase signal and the negative control DMSO.

R232-STING = R232-STING (Homo sapiens (Human), UniProt Q86WV6, H232R); settings: read-out: R232-STING SPA-IC50 Ki; STING residues 155-341, 100 nM 3H-cGAMP; KI from IC50 with Cheng-Prusoff equation
Chain of R232-STING (Q86WV6 155-341 H232R): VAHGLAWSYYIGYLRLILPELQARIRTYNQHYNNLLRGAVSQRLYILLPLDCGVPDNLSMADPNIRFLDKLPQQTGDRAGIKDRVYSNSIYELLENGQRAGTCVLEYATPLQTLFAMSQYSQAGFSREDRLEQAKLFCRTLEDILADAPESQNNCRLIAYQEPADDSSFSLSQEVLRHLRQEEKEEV

| SMILES | EC50 [1] [nM] | EC50 [2] [nM] | Ki (R232-STING) [nM] |
| --- | --- | --- | --- |
| CCn1ncc2c(-c3nc(-c4cc(C)nn4CCCO)cn3C)nc(C(N)=O)cc21 [Example AIJ01, 1-ethyl-4-{4-[1-(3-hydroxypropyl)-3-methyl-1H-pyrazol-5-yl]-1-methyl-1H-imidazol-2-yl}-1H-pyrazolo[4,3-c]pyridine-6-carboxamide] | 400 | 450 | 10.2 |
| Cc1cc(-c2cn(C)c(-c3nc(C(N)=O)cc4c3cnn4C)n2)n(CC2CC2)n1 [AIF04, 4-{4-[1-(cyclopropylmethyl)-3-methyl-1H-pyrazol-5-yl]-1-methyl-1H-imidazol-2-yl}-1-methyl-1H-pyrazolo[4,3-c]pyridine-6-carboxamide] | 2120 | 2380 | 23.6 |
| CCn1nc(C)cc1-c1cn(C)c(-c2nc(C(N)=O)cc3c2cnn3C)n1 [Example AIA01, 4-[4-(1-ethyl-3-methyl-1H-pyrazol-5-yl)-1-methyl-1H-imidazol-2-yl]-1-methyl-1H-pyrazolo[4,3-c]pyridine-6-carboxamide] | 670 | 820 | 10.7 |
| Cc1cc(-c2cn(C)c(-c3nc(C(N)=O)cc4c3cnn4C)n2)n(C)n1 [AIH02, 4-[4-(1,3-dimethyl-1H-pyrazol-5-yl)-1-methyl-1H-imidazol-2-yl]-1-methyl-1H-pyrazolo[4,3-c]pyridine-6-carboxamide] | 4300 | 2560 | 22.7 |
| Cc1cc(-c2cn(C)c(-c3nc(C(N)=O)cc4c3cnn4C)n2)n(C[C@H]2CCO2)n1 (single isomer, unassigned) [Example AIM01] | > 10000 | > 10000 | 175 |
| Cc1cc(-c2cn(C)c(-c3nc(C(N)=O)cc4c3cnn4C)n2)n(CC(N)=O)n1 [Example AIP02, 4-{4-[1-(2-amino-2-oxoethyl)-3-methyl-1H-pyrazol-5-yl]-1-methyl-1H-imidazol-2-yl}-1-methyl-1H-pyrazolo[4,3-c]pyridine-6-carboxamide] | > 10000 | > 10000 | 161 |
| CCn1ncc2c(-c3nc(-c4cc(C)nn4CCCOC)cn3C)nc(C(N)=O)cc21 [AIC03, 1-ethyl-4-{4-[1-(3-methoxypropyl)-3-methyl-1H-pyrazol-5-yl]-1-methyl-1H-imidazol-2-yl}-1H-pyrazolo[4,3-c]pyridine-6-carboxamide] | 650 | 700 | 7.8 |
| COCCCn1nc(C)cc1-c1cn(C)c(-c2nc(C(N)=O)cc3c2cnn3C)n1 [AIF03, 4-{4-[1-(3-methoxypropyl)-3-methyl-1H-pyrazol-5-yl]-1-methyl-1H-imidazol-2-yl}-1-methyl-1H-pyrazolo[4,3-c]pyridine-6-carboxamide] | 140 | 160 | 5.7 |
| CCn1nc(C)c(F)c1-c1cn(C)c(-c2nc(C(N)=O)cc3c2cnn3C)n1 [AIF12, 4-[4-(1-ethyl-4-fluoro-3-methyl-1H-pyrazol-5-yl)-1-methyl-1H-imidazol-2-yl]-1-methyl-1H-pyrazolo[4,3-c]pyridine-6-carboxamide] | 310 | 370 | 2.4 |
| CCn1nc(C)c(O)c1-c1cn(C)c(-c2nc(C(N)=O)cc3c2cnn3CC)n1 [AIN04, 1-ethyl-4-[4-(1-ethyl-4-hydroxy-3-methyl-1H-pyrazol-5-yl)-1-methyl-1H-imidazol-2-yl]-1H-pyrazolo[4,3-c]pyridine-6-carboxamide] | 370 | 310 | 2.9 |
| COCCCn1nc(C)cc1-c1cn(C)c(-c2nc(C(N)=O)cc3c2cnn3C(F)F)n1 [AIN02, 1-(difluoromethyl)-4-{4-[1-(3-methoxypropyl)-3-methyl-1H-pyrazol-5-yl]-1-methyl-1H-imidazol-2-yl}-1H-pyrazolo[4,3-c]pyridine-6-carboxamide] | 990 | 1200 | 20.9 |
| Cc1cc(-c2cn(C)c(-c3nc(C(N)=O)cc4c3cnn4C)n2)n(CCCCCO)n1 [AIE03, 4-{4-[1-(5-hydroxypentyl)-3-methyl-1H-pyrazol-5-yl]-1-methyl-1H-imidazol-2-yl}-1-methyl-1H-pyrazolo[4,3-c]pyridine-6-carboxamide] | 310 | 310 | 10.7 |
| CCn1nc(C)cc1-c1cn(CC(F)F)c(-c2nc(C(N)=O)cc3c2cnn3C)n1 [AIA04, 4-[1-(2,2-difluoroethyl)-4-(1-ethyl-3-methyl-1H-pyrazol-5-yl)-1H-imidazol-2-yl]-1-methyl-1H-pyrazolo[4,3-c]pyridine-6-carboxamide] | 1260 | 1310 | 33.8 |
| Cc1cc(-c2cn(C)c(-c3nc(C(N)=O)cc4c3cnn4C)n2)n(CC(F)(F)F)n1 [AIF06, 1-methyl-4-{1-methyl-4-[3-methyl-1-(2,2,2-trifluoroethyl)-1H-pyrazol-5-yl]-1H-imidazol-2-yl}-1H-pyrazolo[4,3-c]pyridine-6-carboxamide] | 2610 | 2570 | 18.2 |
| CCn1cc(-c2cc(C)nn2CCCO)nc1-c1nc(C(N)=O)cc2c1cnn2C [AIE02, 4-{1-ethyl-4-[1-(3-hydroxypropyl)-3-methyl-1H-pyrazol-5-yl]-1H-imidazol-2-yl}-1-methyl-1H-pyrazolo[4,3-c]pyridine-6-carboxamide] | 200 | 270 | 12.7 |

Now from value to compound:

| EC50 [1] [nM] | EC50 [2] [nM] | Ki (R232-STING) [nM] | SMILES |
| --- | --- | --- | --- |
| 330 | 430 | 15.2 | CCn1cc(-c2cc(C)nn2CCCOC)nc1-c1nc(C(N)=O)cc2c1cnn2C [Example AIK01, 4-{1-ethyl-4-[1-(3-methoxypropyl)-3-methyl-1H-pyrazol-5-yl]-1H-imidazol-2-yl}-1-methyl-1H-pyrazolo[4,3-c]pyridine-6-carboxamide] |
| 10 | < 10 | 0.3 | CCCn1nc(C)c(O)c1-c1cn(C)c(-c2nc(C(N)=O)cc3c2cnn3C)n1 [AIF11, 4-[4-(4-hydroxy-3-methyl-1-propyl-1H-pyrazol-5-yl)-1-methyl-1H-imidazol-2-yl]-1-methyl-1H-pyrazolo[4,3-c]pyridine-6-carboxamide] |
| 2240 | 2260 | 62.6 | Cc1cc(-c2cn(C)c(-c3nc(C(N)=O)cc4c3cnn4C)n2)n(CCC#N)n1 [Example AIQ01, 4-{4-[1-(2-cyanoethyl)-3-methyl-1H-pyrazol-5-yl]-1-methyl-1H-imidazol-2-yl}-1-methyl-1H-pyrazolo[4,3-c]pyridine-6-carboxamide] |
| 6580 | 6260 | 148 | CCCn1nccc1-c1cn(C)c(-c2nc(C(N)=O)cc3c2cnn3C)n1 [AIH03, 1-methyl-4-[1-methyl-4-(1-propyl-1H-pyrazol-5-yl)-1H-imidazol-2-yl]-1H-pyrazolo[4,3-c]pyridine-6-carboxamide] |
| 530 | 530 | 24.6 | Cc1cc(-c2cn(C)c(-c3nc(C(N)=O)cc4c3cnn4C)n2)n(CCCOC(F)F)n1 [Example AIL01, 4-(4-{1-[3-(difluoromethoxy)propyl]-3-methyl-1H-pyrazol-5-yl}-1-methyl-1H-imidazol-2-yl)-1-methyl-1H-pyrazolo[4,3-c]pyridine-6-carboxamide] |
| 1140 | 1240 | 35.2 | CCn1nc(C)cc1-c1cn(CCOC)c(-c2nc(C(N)=O)cc3c2cnn3C)n1 [AIP04, 4-[4-(1-ethyl-3-methyl-1H-pyrazol-5-yl)-1-(2-methoxyethyl)-1H-imidazol-2-yl]-1-methyl-1H-pyrazolo[4,3-c]pyridine-6-carboxamide] |
| 2090 | 2160 | 54.6 | COCCn1nc(C)cc1-c1cn(C)c(-c2nc(C(N)=O)cc3c2cnn3C)n1 [AIF02, 4-{4-[1-(2-methoxyethyl)-3-methyl-1H-pyrazol-5-yl]-1-methyl-1H-imidazol-2-yl}-1-methyl-1H-pyrazolo[4,3-c]pyridine-6-carboxamide] |

Source: US11964978B2, “Modulators of STING (stimulator of interferon genes)” (PFIZER INC., priority 2021, dated 2024)
